Experiment in all cases: Test I mixtures of compound 9 with metsulfuron-methyl and chlorsulfuron-metsulfuron-methyl (5:1)
Type in all cases: in vivo
Conditions in all cases: applied alone

Assay [1] deals with Russian thistle (SASKR; Salsola kali). The source says:
(§1) This test evaluated the effect of mixtures of compound 9 with metsulfuron-methyl and with a 5:1 by weight combination of chlorsulfuron and metsulfuron-methyl on several plant species. Seeds of test plants consisting of wheat (TRZAW; Triticum aestivum), wild buckwheat, (POLCO; Polygonum convolvulus), redroot pigweed (AMARE; Amaranthus retroflexus), wild mustard (SINAR; Sinapis arvensis), catchweed bedstraw (GALAP; Galium aparine), Russian thistle (SASKR; Salsola kali), common chickweed (STEME; Stellaria media), kochia (KCHSC; Kochia scoparia), and lambsquarters (CHEAL; Chenopodium album) were planted into a blend of loam soil and sand. Plants were grown in a greenhouse using supplemental lighting to maintain a photoperiod of about 14 hours; daytime and nighttime temperatures were about 23° C. and 16° C., respectively. Balanced fertilizer was applied through the watering system. The plants were grown for 10 to 23 days so that at time of treatment the plants ranged from 2- to 8-leaf stage. Treatments consisted of Compound 9, metsulfuron-methyl, and chlorsulfuron-metsulfuron-methyl (5:1) alone and in combination. The treatments were formulated in a non-phytotoxic solvent mixture which included a surfactant and applied as a foliage spray using a volume of 280-458 L/ha. Each treatment was replicated three times. […] Treated plants and controls were maintained in the greenhouse and watered as needed with care to not wet the foliage for the first 24 hours after treatment. The effects on the plants approximately 17 days after treatment were visually compared to untreated controls. Plant response ratings were calculated as the means of the three replicates, based on a scale of 0 to 100 where 0 is no effect and 100 is complete control. Colby's Equation was used to determine the herbicidal effects expected from the mixtures.

For assay [2], the system named is catchweed bedstraw (GALAP; Galium aparine).
Source text: as §1

Assay [3] deals with common chickweed (STEME; Stellaria media).
Source text: as §1

Assay [4] deals with kochia (KCHSC; Kochia scoparia).
Source text: as §1

Assay [5] deals with lambsquarters (CHEAL; Chenopodium album).
Source text: as §1

Assay [6] deals with redroot pigweed (AMARE; Amaranthus retroflexus).
Source text: as §1

In assay [7] the test system is wheat (TRZAW; Triticum aestivum).
Source text: as §1

Assay [8] has as its system wild buckwheat (POLCO; Polygonum convolvulus).
Source text: as §1

The test system of assay [9] is wild mustard (SINAR; Sinapis arvensis).
Source text: as §1

For the compound `COC(=O)c1nc(C2CC2)nc(N)c1Cl` [Compound 9, methyl 6-amino-5-chloro-2-cyclopropyl-4-pyrimidinecarboxylate], the entries for the “SASKR Obsd. (observed effect)” value in assay [1] (4 g a.i./ha) and in assay [1] (8 g a.i./ha) were 50 and 73, respectively. Besides, the entries for the “GALAP Obsd. (observed effect)” value in assay [2] (4 g a.i./ha) and in assay [2] (8 g a.i./ha) were 83 and 87, respectively. In addition, the figures for the “STEME Obsd. (observed effect)” value in assay [3] (4 g a.i./ha) and in [3] (8 g a.i./ha) were 47 and 55, respectively. Also, the “KCHSC Obsd. (observed effect)” value in [4] (4 g a.i./ha) was 70; in assay [4] (8 g a.i./ha), 87. For the same compound, the “CHEAL Obsd. (observed effect)” value in assay [5] (4 g a.i./ha) amounted to 45; in [5] (8 g a.i./ha), 83. The “AMARE Obsd. (observed effect)” value in [6] (4 g a.i./ha) amounted to 62; in [6] (8 g a.i./ha) it was 70. The “TRZAW Obsd. (observed effect)” value in assay [7] (Chlorsulfuron-Metsulfuron-Methyl series, 8 g a.i./ha) was 30; in assay [7] (Chlorsulfuron-Metsulfuron-Methyl series, 16 g a.i./ha), 43; in assay [7] (Metsulfuron-Methyl series, 4 g a.i./ha), 8; in [7] (Metsulfuron-Methyl series, 8 g a.i./ha) it was 12. The “POLCO Obsd. (observed effect)” value in assay [8] (4 g a.i./ha) came to 17; in assay [8] (8 g a.i./ha), 27. Further, the “SINAR Obsd. (observed effect)” value in assay [9] (4 g a.i./ha) worked out at 45; in [9] (8 g a.i./ha), 47.

The values above are taken from US8802597B2, “Herbicidal pyrimidines” (E I du Pont de Nemours and Company, priority 2003, dated 2014).
